BindingDB's records for doi:10.7270/Q2H70D5W (University of Pittsburgh, 2007)
pIC50: −log10 of the molar value.

Each compound was assayed against Gag-Pol polyprotein (Human immunodeficiency virus type 1 group M subtype B (isolate HXB2), UniProt P04585) (assay: HIV-1 RT RNase H inhibitor potency, dose response, biochemical, probe assessment (AID 652)). Settings: pH 8; 23 °C.
Work on `CCOc1cc(C2C(C#N)C(=N)SC(=N)C2C#N)ccc1OCCN1CCOCC1` (configuration not stated) [2,6-bis(azanyl)-4-[3-ethoxy-4-(2-morpholin-4-ylethoxy)phenyl]-4H-thiopyran-3,5-dicarbonitrile] yielded a pIC50 of 4.50.
`O=C(CSc1nc2sc3c(c2c(=O)n1-c1ccccc1)CCCC3)NCc1ccco1` [MLS000115858] gave a pIC50 of 4.76.
For `O=C1c2sc3nc4ccccc4n3c2C(=O)N1c1ccccc1Cl` [MLS000038506], the pIC50 was 5.95.
`Fc1ccc(-c2ccc(-c3nn4c(-c5ccco5)nnc4s3)o2)cc1` [6-[5-(4-fluorophenyl)-2-furanyl]-3-(2-furanyl)-[1,2,4]triazolo[3,4-b][1,3,4]thiadiazole] gave a pIC50 of 5.05.
Work on `CC(=O)N(Cc1cc(=O)[nH]c2ccccc12)c1cccc(C)c1` [N-(3-methylphenyl)-N-[(2-oxidanylidene-1H-quinolin-4-yl)methyl]ethanamide] yielded a pIC50 of 5.29.
For `Cc1ccc(-n2sc3ccccc3c2=O)cc1S(=O)(=O)N1CCCCC1` [2-(4-methyl-3-piperidin-1-ylsulfonyl-phenyl)-1,2-benzothiazol-3-one], the pIC50 was 6.79.
For `Cc1cccc(C(=O)OCC(=O)Nc2ccc(N3CCCCC3)cc2)c1O` [2-hydroxy-3-methyl-benzoic acid [2-keto-2-(4-piperidinoanilino)ethyl] ester], the pIC50 was 4.88.
Compound `c1ccc(Cc2nnc3sc(-c4ccncc4)nn23)cc1` [3-(phenylmethyl)-6-pyridin-4-yl-[1,2,4]triazolo[3,4-b][1,3,4]thiadiazole] has a pIC50 of 5.74.
Work on `Cc1sc2nc(C(C)Nc3ccccc3N3CCOCC3)[nH]c(=O)c2c1C` (configuration not stated) [5,6-dimethyl-2-[1-[2-(4-morpholinyl)anilino]ethyl]-3H-thieno[2,3-d]pyrimidin-4-one] yielded a pIC50 of 4.84.
For `CCOC(=O)c1c(NC(=O)c2ccc(-n3cnnn3)cc2)sc2c1CCCC2` [2-[[4-(tetrazol-1-yl)benzoyl]amino]-4,5,6,7-tetrahydrobenzothiophene-3-carboxylic acid ethyl ester], the pIC50 was 5.55.
In the case of `O=C(O)c1ccc2c(c1)NC(=O)C(N1CCCC1)S2` (configuration not stated) [3-keto-2-pyrrolidino-4H-1,4-benzothiazine-6-carboxylic acid], the pIC50 was 5.43.
In the case of `c1ccc2c(c1)OCC(c1nnc3sc(-c4ccc5c(c4)OCO5)nn13)O2` (configuration not stated) [6-(1,3-benzodioxol-5-yl)-3-(2,3-dihydro-1,4-benzodioxin-3-yl)-[1,2,4]triazolo[3,4-b][1,3,4]thiadiazole], the pIC50 was 5.84.
With `O=C(NC1CCCCC1)c1sc(=S)n2c1[nH]c(=O)c1ccccc12` [SMR000030293] the pIC50 was 6.19.
With `COc1cccc(OCC(=O)Nc2c(C(=O)Nc3ccc(OC)cc3OC)oc3ccccc23)c1` [MLS000093002] the pIC50 was 5.75.
With `Cc1cc(C)cc(OCC(=O)Nc2nonc2NC(=O)COc2cc(C)cc(C)c2)c1` [2-(3,5-dimethylphenoxy)-N-[4-[2-(3,5-dimethylphenoxy)ethanoylamino]-1,2,5-oxadiazol-3-yl]ethanamide] the pIC50 was 5.72.
Compound `c1ccc2c(c1)nnn2Cc1nnc2sc(-c3ccncc3)nn12` [3-(1-benzotriazolylmethyl)-6-pyridin-4-yl-[1,2,4]triazolo[3,4-b][1,3,4]thiadiazole] has a pIC50 of 5.68.
With `CC(Cc1ccc(O)c(O)c1)C(C)Cc1ccc(O)c(O)c1` (configuration not stated) [LOX inhibitor, N/A] the pIC50 was 6.18.
Work on `c1ccc(Cc2nn3c(Cn4nnc5ccccc54)nnc3s2)cc1` [3-(1-benzotriazolylmethyl)-6-(phenylmethyl)-[1,2,4]triazolo[3,4-b][1,3,4]thiadiazole] yielded a pIC50 of 5.74.
Compound `CCOC(=O)CSc1nc2cc(C(=O)NCc3ccco3)ccc2c(=O)n1C1CCCCC1` [2-[[3-cyclohexyl-7-(2-furfurylcarbamoyl)-4-keto-quinazolin-2-yl]thio]acetic acid ethyl ester] has a pIC50 of 5.22.
In the case of `CCc1ccccc1N1CSC2=C(C#N)C(c3ccccc3F)CC(=O)N2C1` (configuration not stated) [3-(2-ethylphenyl)-8-(2-fluorophenyl)-6-keto-2,4,7,8-tetrahydropyrido[2,1-b][1,3,5]thiadiazine-9-carbonitrile], the pIC50 was 5.91.
Work on `CCCc1cc(C(N)=O)c(NC(=O)C2CCCO2)s1` (configuration not stated) [MLS000065925] yielded a pIC50 of 5.72.
Work on `COC(=O)N(c1ccccc1)P1(=S)OCCO1` [MLS000052970] yielded a pIC50 of 5.69.
In the case of `O=S(=O)(NS1=CC=CCN1S(=O)(=O)c1ccccc1)c1ccccc1` (configuration not stated) [MLS000081951], the pIC50 was 5.36.
For `CCC(C)Sc1nc2c(c(=O)[nH]c(=O)n2C)n1CC(O)COc1cccc2ccccc12` (configuration not stated) [SMR000009990], the pIC50 was 5.40.
`CC(=O)C(C(C)=O)c1c(Cl)c(O)c(O)c2c(C(=O)c3ccccc3)coc12` [3-(3-benzoyl-6-chloro-4,5-dihydroxy-1-benzofuran-7-yl)pentane-2,4-dione] gave a pIC50 of 6.42.
`N#Cc1nc(-c2ccc(OCc3ccc(Cl)cc3)cc2)oc1NCc1cccnc1` [2-[4-(4-chlorobenzyl)oxyphenyl]-5-(3-pyridylmethylamino)oxazole-4-carbonitrile] was tested, and the pIC50 was 4.89.
`O=C(Nc1nc(-c2ccncc2)cs1)c1ccco1` [MLS000053154] was tested, and the pIC50 was 5.25.
`COc1ccccc1-c1nnc2n1N=C(c1ccc(O)c(O)c1)CS2` [(4E)-4-[3-(2-methoxyphenyl)-5H-[1,2,4]triazolo[3,4-b][1,3,4]thiadiazin-6-ylidene]-2-oxidanyl-cyclohexa-2,5-dien-1-one] was tested, and the pIC50 was 6.00.
`COc1cc(/N=c2/ssnc2Cl)cc(OC)c1OC` [SMR000025034] was tested, and the pIC50 was 6.55.
In the case of `CCOC(=O)N(c1ccccc1)P1(=S)OCCO1` [MLS000090301], the pIC50 was 5.49.
`CC(C)c1nnc(NC(=O)c2c(O)n3c4c(cccc4c2=O)CCC3)s1` [1-Hydroxy-3-oxo-6,7-dihydro-3H,5H-pyrido[3,2,1-ij]quinoline-2-carboxylic acid (5-isopropyl-[1,3,4]thiadiazol-2-yl)-amide] was tested, and the pIC50 was 4.83.
`O=C(NC(=O)c1ccc(Cl)cc1)Nc1cc(N2CCCCC2)ncn1` [4-chloranyl-N-[(6-piperidin-1-ylpyrimidin-4-yl)carbamoyl]benzamide] showed a pIC50 of 5.07.
`Cc1ccc(-n2c(N)c(C(=O)N3CCCCC3)sc2=S)cc1` [4-amino-3-(4-methylphenyl)-5-(1-piperidinylcarbonyl)-1,3-thiazole-2(3H)-thione] was tested, and the pIC50 was 5.64.
For `Cc1ccc(Cn2c(SCC(C)C)nc3c2c(=O)[nH]c(=O)n3C)cc1` [3-methyl-7-[(4-methylphenyl)methyl]-8-(2-methylpropylthio)purine-2,6-dione], the pIC50 was 5.77.
`CC(C)c1nc2sc3c(SCC(=O)NCc4ccco4)ncnc3c2c2c1CCC2` [MLS000082582] showed a pIC50 of 5.64.
`Cc1ccc(-n2nc(C)c3c2NC(=O)CSC3c2ccc3c(c2)OCO3)cc1` (configuration not stated) [4-(1,3-benzodioxol-5-yl)-3-methyl-1-(4-methylphenyl)-2,4-dihydropyrazolo[3,4-e][1,4]thiazepin-7-one] was tested, and the pIC50 was 5.28.
Work on `CCCCCn1c(SCCCC)nc2c1c(=O)[nH]c(=O)n2C` yielded a pIC50 of 5.61.
With `COc1ccc(C2C(C(C)=O)=C(C)N=c3sc(=Cc4ccc5c(c4)OCO5)c(=O)n32)cc1` (configuration not stated) [SMR000020852] the pIC50 was 5.15.
`Cc1ccnc(-n2sc3ccccc3c2=O)n1` [2-(4-methyl-2-pyrimidinyl)-1,2-benzothiazol-3-one] gave a pIC50 of 5.93.
`Cc1ccc2c(SCC(=O)NCc3ccco3)nc(-c3ccc(F)cc3)nc2c1` [2-[2-(4-Fluoro-phenyl)-7-methyl-quinazolin-4-ylsulfanyl]-N-furan-2-ylmethyl-acetamide] showed a pIC50 of 5.48.
For `O=C(NCc1ccco1)c1cccnc1-c1nc2ccccc2s1` [2-(1,3-benzothiazol-2-yl)-N-(2-furanylmethyl)-3-pyridinecarboxamide], the pIC50 was 5.49.
Compound `CC(C)Cc1cc(C(=O)Nc2sc3c(c2C#N)CCCC3)no1` [MLS000116410] has a pIC50 of 5.32.
With `Cc1ccc2c(c1C)NC(C(=O)O)C1CC=CC21` (configuration not stated) the pIC50 was 5.99.
`COC(=O)c1ccccc1S(=O)(=O)N(Cc1cc2cc3c(cc2[nH]c1=O)OCO3)C1CCCCC1` [SMR000002998] showed a pIC50 of 4.68.
Work on `O=C(Nc1ccc2nc(-c3ccco3)c(-c3ccco3)nc2c1)N1CCCCCC1` yielded a pIC50 of 6.02.
Work on `c1csc(-c2nn3c(C4COc5ccccc5O4)nnc3s2)c1` (configuration not stated) [3-(2,3-dihydro-1,4-benzodioxin-2-yl)-6-(2-thienyl)[1,2,4]triazolo[3,4-b][1,3,4]thiadiazole] yielded a pIC50 of 5.92.
For `Fc1ccc(-c2nnc3sc(-c4ccc5c(c4)OCO5)nn23)cc1` [6-(1,3-benzodioxol-5-yl)-3-(4-fluorophenyl)-[1,2,4]triazolo[3,4-b][1,3,4]thiadiazole], the pIC50 was 5.41.
`Cc1ccc(-n2c(N)c(C(=O)N3CCOCC3)sc2=S)cc1` [4-amino-3-(4-methylphenyl)-5-(4-morpholinylcarbonyl)-1,3-thiazole-2(3H)-thione] gave a pIC50 of 5.31.
`CC1CC(C)(C)NC(=S)S1` (configuration not stated) [4,4,6-trimethyl-1,3-thiazinane-2-thione] showed a pIC50 of 5.28.
With `COc1ccc(N2CCN(Cc3cc(=O)oc4cc(C)c(Cl)c(C)c34)CC2)cc1` [6-chloranyl-4-[[4-(4-methoxyphenyl)piperazin-1-yl]methyl]-5,7-dimethyl-chromen-2-one] the pIC50 was 5.41.
In the case of `O=C1CCCC(=O)C1C(C#Cc1ccccc1)C1C(=O)CCCC1=O` [3-hydroxy-2-[1-(2-hydroxy-6-keto-cyclohexen-1-yl)-3-phenyl-prop-2-ynyl]cyclohex-2-en-1-one], the pIC50 was 5.96.
With `COc1cc(OC)c(C2CC(=O)N3CN(c4ccccc4C)CSC3=C2C#N)cc1OC` (configuration not stated) [MLS000080656] the pIC50 was 5.35.
For `CCCN(CCC)S(=O)(=O)c1ccc(C(=O)Nc2nnc(-c3cccc(OC)c3)o2)cc1` [4-(dipropylsulfamoyl)-N-[5-(3-methoxyphenyl)-1,3,4-oxadiazol-2-yl]benzamide], the pIC50 was 4.67.
`CCOC(=O)c1c(N)sn(-c2ccccc2C)c1=S` [5-amino-2-(2-methylphenyl)-3-sulfanylidene-4-isothiazolecarboxylic acid ethyl ester] was tested, and the pIC50 was 5.64.
`Cc1cccc(N2CCN(C(=O)Cn3sc4nc(C)cc(C)c4c3=O)CC2C)c1` (configuration not stated) [2-[2-keto-2-[3-methyl-4-(m-tolyl)piperazino]ethyl]-4,6-dimethyl-isothiazolo[5,4-b]pyridin-3-one] showed a pIC50 of 5.37.
`CCOC(=O)C1CCCN(C(=O)Cn2sc3nc(C)cc(C)c3c2=O)C1` (configuration not stated) [1-[2-(3-keto-4,6-dimethyl-isothiazolo[5,4-b]pyridin-2-yl)acetyl]nipecotic acid ethyl ester] gave a pIC50 of 5.04.
`CCOC(=O)c1c(N)sc2c1CCC1C(=O)N(C3CCCCC3)C(=O)C21` (configuration not stated) [2-amino-7-cyclohexyl-6,8-diketo-4,5,5a,8a-tetrahydrothien[2,3-e]isoindole-3-carboxylic acid ethyl ester] was tested, and the pIC50 was 5.32.
